Experiments:
[1] = tested on: IL6 production in RAW 264.7 macrophage cell line; assay: Mouse IL6 quantification assay (LPS-stimulated macrophages, ELISA); assay type: cell-based; details: RAW264.7, RAW 264.7 murine leukemia virus transformed macrophage cell lines, LPS stimulation, read-out: IL-6 % Inhibition at 30 μM
[2] = tested on: TNFα production in RAW 264.7 macrophage cell line; assay: Mouse TNF alpha quantification assay (LPS-stimulated macrophages, ELISA); assay type: cell-based; details: RAW264.7, RAW 264.7 murine leukemia virus transformed macrophage cell lines, LPS stimulation, read-out: TNF-α % Inhibition at 30 μM

Row | Compound | inhibition at 30 µM [1] [%] | inhibition at 30 µM [2] [%]
1 | O=C(Nc1nnc(-c2ccccn2)[nH]1)C1=NOC(c2ccccc2)C1 (centres unmarked) [drawing 1992] | 26 to 50 | 1 to 25
2 | O=C(COc1ccccc1)Nc1nnc(-c2ccccn2)[nH]1 [drawing 1993] | 1 to 25 | 0
3 | O=C(Nc1nnc(-c2ccccn2)[nH]1)c1csc(-c2ccco2)n1 [drawing 1994] | 51 to 75 | 0
4 | O=C(Nc1nnc(-c2ccccn2)[nH]1)C1Cc2cc(Cl)ccc2O1 (centres unmarked) [drawing 1995] | 51 to 75 | 1 to 25
5 | O=C(Cc1ccc2c(c1)OCO2)Nc1nnc(-c2ccccn2)[nH]1 [drawing 1996] | 26 to 50 | 1 to 25
6 | O=C(Cc1ccc2c(c1)OCCO2)Nc1nnc(-c2ccccn2)[nH]1 [drawing 1997] | 0 | 1 to 25
7 | N#CCc1ccc(OCC(=O)Nc2nnc(-c3ccccn3)[nH]2)cc1 [drawing 1998] | 0 | 1 to 25
8 | O=C(Nc1nnc(-c2ccccn2)[nH]1)c1ccc(=O)n(CCOc2ccccc2)n1 [drawing 1999] | 26 to 50 | 0
9 | COc1cn(-c2ccccc2)nc1C(=O)Nc1nnc(-c2ccccn2)[nH]1 [drawing 2000] | 26 to 50 | 0
10 | CN(CC(=O)Nc1nnc(-c2ccccn2)[nH]1)S(=O)(=O)c1ccccc1 [drawing 2001] | 1 to 25 | 0
11 | CS(=O)(=O)N1CCCc2cc(C(=O)Nc3nnc(-c4ccccn4)[nH]3)ccc21 [drawing 2002] | 26 to 50 | 1 to 25
12 | O=C(Nc1nnc(-c2ccccn2)[nH]1)c1ccc(=O)[nH]n1 [drawing 2003] | 26 to 50 | 1 to 25
13 | COc1ccc(COCC(=O)Nc2nnc(-c3ccccn3)[nH]2)cc1 [drawing 2004] | 26 to 50 | 1 to 25
14 | O=C(COCCOc1ccccc1)Nc1nnc(-c2ccccn2)[nH]1 [drawing 2005] | 0 | 1 to 25
15 | COc1ccc(OCc2nc(CNCCc3nnc4n3CCC4)cs2)cc1 [drawing 2006] | 1 to 25 | 0
16 | O=C(Nc1nc(-c2ccccn2)cs1)C1COc2ccccc2O1 (centres unmarked) [drawing 2007] | 0 | 1 to 25
17 | Cc1cc(C(=O)Nc2nc(-c3ccccn3)cs2)no1 [drawing 2009] | 76 to 100 | 0
18 | O=C(Cn1c(=O)cnc2ccccc21)Nc1nc(-c2ccccn2)cs1 [drawing 2010] | 51 to 75 | 0
19 | O=C(Nc1nc(-c2ccccn2)cs1)c1ccc2nccnc2c1 [drawing 2011] | 51 to 75 | 0
20 | O=C(Nc1nc(-c2ccccn2)cs1)c1ccc2[nH]cnc2c1 [drawing 2012] | 26 to 50 | 1 to 25
21 | CS(=O)(=O)Cc1ccc(C(=O)Nc2nc(-c3ccccn3)cs2)cc1 [drawing 2013] | 0 | 1 to 25
22 | O=C(Nc1nc(-c2ccccn2)cs1)c1ccccn1 [drawing 2014] | 51 to 75 | 1 to 25
23 | O=C(Cn1cnc2ccccc2c1=O)Nc1nc(-c2ccccn2)cs1 [drawing 2015] | 51 to 75 | 1 to 25

Row | Compound | inhibition at 30 µM [1] [%] | inhibition at 30 µM [2] [%]
24 | O=C(Nc1nc(-c2ccccn2)cs1)C1CC(=O)N(c2ccc3c(c2)OCCO3)C1 (centres unmarked) [drawing 2016] | 26 to 50 | 1 to 25
25 | O=C(Nc1nc(-c2ccccn2)cs1)c1cccnc1 [drawing 2017] | 1 to 25 | 1 to 25
26 | O=C(Cc1cccc(F)c1)Nc1nc(-c2ccccn2)cs1 [drawing 2018] | 1 to 25 | 1 to 25
27 | O=C(Nc1nc(-c2ccccn2)cs1)c1ccncc1 [drawing 2019] | 26 to 50 | 1 to 25
28 | O=C(Nc1nc(-c2ccccn2)cs1)c1ccc(F)cc1 [drawing 2020] | 26 to 50 | 26 to 50
29 | COc1ccc(-c2csc3[nH]c(-c4ccccn4)nc(=O)c23)cc1 [drawing 2023] | 26 to 50 | 1 to 25
30 | O=c1nc(-c2ccccn2)[nH]c2scc(-c3cccs3)c12 [drawing 2024] | 0 | 1 to 25
31 | O=c1nc(-c2ccccn2)[nH]c2scc(-c3ccccc3Cl)c12 [drawing 2025] | 0 | 1 to 25
32 | Cc1sc2[nH]c(-c3ccccn3)nc(=O)c2c1-c1ccccc1 [drawing 2026] | 0 | 1 to 25
33 | O=c1nc(-c2ccccn2)[nH]c2ccsc12 [drawing 2027] | 1 to 25 | 0
34 | O=c1nc(-c2ccccn2)[nH]c2sc(-c3ccccc3)cc12 [drawing 2028] | 51 to 75 | 76 to 100
35 | CCN(CC)C(=O)c1sc2[nH]c(-c3ccccn3)nc(=O)c2c1C [drawing 2029] | 1 to 25 | 1 to 25
36 | O=c1nc(-c2ccccn2)[nH]c2c1sc1ccccc12 [drawing 2030] | 76 to 100 | 76 to 100
37 | Cc1cc2c(=O)nc(-c3cc(OCC(F)F)ccn3)[nH]c2s1 [drawing 2031] | 1 to 25 | 1 to 25
38 | Cc1nc(-c2ccccn2)nc(O)c1CCC(=O)Nc1cc(F)ccc1F [drawing 2032] | 1 to 25 | 1 to 25
39 | Cc1nc(-c2ccccn2)nc(O)c1CCC(=O)NC1CCc2ccccc21 (centres unmarked) [drawing 2033] | 26 to 50 | 26 to 50
40 | Cc1nc(-c2ccccn2)nc(O)c1CCC(=O)Nc1ccc(C(C)C)cc1 [drawing 2034] | 0 | 1 to 25
41 | Cc1nc(-c2ccccn2)nc(O)c1CCC(=O)NCC1COc2ccccc2O1 (centres unmarked) [drawing 2035] | 0 | 1 to 25
42 | Cc1nc(-c2ccccn2)nc(O)c1CCC(=O)Nc1cccc(OCC(=O)N2CCCC2)c1 [drawing 2036] | 0 | 1 to 25
43 | CCN(CC)S(=O)(=O)c1cc(C)c(C)c(NC(=O)CCc2c(C)nc(-c3ccccn3)nc2O)c1 [drawing 2037] | 0 | 1 to 25
44 | OCCNc1nc(-c2ccccn2)nc2scc(-c3ccccc3)c12 [drawing 2038] | 1 to 25 | 0
45 | COCC(C)Nc1nc(-c2ccccn2)nc2sc(C)c(-c3ccccc3)c12 (centres unmarked) [drawing 2039] | 76 to 100 | 76 to 100
46 | CCc1cc(NNC(=O)c2ccc(C#N)cc2)nc(-c2ccccn2)n1 [drawing 2040] | 76 to 100 | 76 to 100

Row | Compound | inhibition at 30 µM [1] [%] | inhibition at 30 µM [2] [%]
47 | COCCCn1ccc(Nc2cc(C)nc(-c3ccccn3)n2)n1 [drawing 2041] | 26 to 50 | 0
48 | CC(O)CNc1nc(-c2ccccn2)nc2scc(-c3ccccc3)c12 (centres unmarked) [drawing 2042] | 26 to 50 | 1 to 25
49 | NC(=O)C1(CNc2nc(-c3ccccn3)nc3c2CCC3)CCCC1 [drawing 2043] | 26 to 50 | 1 to 25
50 | OCCOCCNc1nc(-c2ccccn2)nc2scc(-c3ccccc3)c12 [drawing 2044] | 1 to 25 | 1 to 25
51 | Cc1sc2nc(-c3ccccn3)nc(NCCCO)c2c1-c1ccccc1 [drawing 2045] | 1 to 25 | 1 to 25
52 | COC(=O)c1cccc(CN2CCC(CSc3ccccc3)C2)c1C#N (centres unmarked) [drawing 2046] | 26 to 50 | 0
53 | COC(=O)c1cc(NCc2nc(CC(C)C)no2)ccc1Cl [drawing 2047] | 26 to 50 | 1 to 25
54 | Cc1cccc(CN(Cc2ccccn2)Cc2nccn2C)c1 [drawing 2048] | 26 to 50 | 1 to 25
55 | Cc1ccc(CN(Cc2ccco2)C(=O)c2oc3ccccc3c2C)cc1 [drawing 2049] | 1 to 25 | 0
56 | Cc1ccc(O)c(CN(C)Cc2nccn2Cc2ccccc2)n1 [drawing 2050] | 1 to 25 | 0
57 | FC(F)(F)Sc1ccc(Cc2ccc(SC(F)(F)F)cc2)cc1 [drawing 2051] | 1 to 25 | 0
58 | CCCCSc1nc(-c2cccs2)c(C(=O)C(F)(F)F)cc1C#N [drawing 2053] | 51 to 75 | 0
59 | CCC(C)(C)c1ccc(OCCCC(=O)NC(C(=O)OC)C(C)C)c(C(C)(C)CC)c1 (centres unmarked) [drawing 2054] | 26 to 50 | 26 to 50
60 | Oc1ccc(C2(c3cccc(Cl)c3)CCCC2)cc1 [drawing 2055] | 76 to 100 | 76 to 100
61 | Cc1ccc(-c2ccc(Oc3ccc(C(F)(F)F)cn3)c(C)c2)cc1 [drawing 2056] | 0 | 1 to 25
62 | CCOc1cc(C(=O)Oc2c(C)ccc(C)c2C)cc(OCC)c1OCC [drawing 2057] | 51 to 75 | 1 to 25
63 | COC(=O)c1ccc(C(=O)NCC2(c3ccccc3OC)CCCC2)nc1 [drawing 2058] | 0 | 1 to 25
64 | CCOc1cc(S(=O)(=O)N(Cc2ccccc2)Cc2ccccc2)c(OCC)cc1C [drawing 2059] | 1 to 25 | 1 to 25
65 | COc1ccc(CN(CC[S+]([O-])c2cc(Cl)ccc2Cl)C2CC2)cc1 (centres unmarked) [drawing 2060] | 0 | 1 to 25
66 | CCCOc1ccc2ccccc2c1CN(C)S(=O)(=O)N1CC(C)OC(C)C1 (centres unmarked) [drawing 2061] | 1 to 25 | 51 to 75
67 | O=S(=O)(Oc1cc(C(F)(F)F)cc(C(F)(F)F)c1)N1CCc2ccccc2C1 [drawing 2062] | 51 to 75 | 0

— US10940139B2, “Compounds that interact with the Ras superfamily for the treatment of cancers, inflammatory diseases, rasopathies, and fibrotic disease” (Shy Therapeutics LLC, priority 2017, dated 2021)
